Results from US12162888B2, “Carboxamides as ubiquitin-specific protease inhibitors” (Valo Early Discovery, Inc., priority 2018, dated 2024).

molecular target: T1, USP25 (USP25-His6, Boston Biochem E-546) (Homo sapiens, UniProt Q9UHP3); test: Ubiquitin-Rhodamine 110 Assay for USP25 Activity, Example A-3; format: biochemical; details: Ubiquitin-Rhodamine 110 assay, Example A-3; read-out: USP25 A-3 IC50 range
T1 construct: His6 (C); purchased Boston Biochem E-546
T1 sequence (Q9UHP3 1-1055): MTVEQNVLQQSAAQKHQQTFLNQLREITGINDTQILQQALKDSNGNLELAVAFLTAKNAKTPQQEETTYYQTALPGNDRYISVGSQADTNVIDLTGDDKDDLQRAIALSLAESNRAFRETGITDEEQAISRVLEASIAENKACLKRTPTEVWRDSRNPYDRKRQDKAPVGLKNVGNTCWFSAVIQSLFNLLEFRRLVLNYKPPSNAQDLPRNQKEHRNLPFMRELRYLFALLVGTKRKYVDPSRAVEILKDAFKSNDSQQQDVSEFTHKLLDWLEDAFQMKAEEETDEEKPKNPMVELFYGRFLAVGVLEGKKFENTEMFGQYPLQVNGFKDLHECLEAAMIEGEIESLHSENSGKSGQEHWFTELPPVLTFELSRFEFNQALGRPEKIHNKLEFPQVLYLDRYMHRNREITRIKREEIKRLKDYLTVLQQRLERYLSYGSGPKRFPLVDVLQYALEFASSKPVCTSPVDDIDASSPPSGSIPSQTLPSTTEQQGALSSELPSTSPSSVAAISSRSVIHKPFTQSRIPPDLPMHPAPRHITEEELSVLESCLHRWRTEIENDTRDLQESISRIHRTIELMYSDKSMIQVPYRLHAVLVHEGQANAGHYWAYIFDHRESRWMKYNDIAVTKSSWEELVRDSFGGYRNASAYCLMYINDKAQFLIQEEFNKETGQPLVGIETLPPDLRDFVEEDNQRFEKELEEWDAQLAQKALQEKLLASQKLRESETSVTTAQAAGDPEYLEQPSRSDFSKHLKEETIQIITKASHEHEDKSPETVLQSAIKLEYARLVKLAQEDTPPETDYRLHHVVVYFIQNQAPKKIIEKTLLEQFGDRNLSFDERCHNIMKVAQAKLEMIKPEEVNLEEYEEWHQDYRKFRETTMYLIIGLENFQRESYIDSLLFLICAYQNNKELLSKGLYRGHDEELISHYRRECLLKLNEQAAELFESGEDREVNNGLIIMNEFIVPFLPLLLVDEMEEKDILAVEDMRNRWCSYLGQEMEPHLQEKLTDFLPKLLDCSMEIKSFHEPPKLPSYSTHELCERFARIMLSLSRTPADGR
Method in brief: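 USP25-His6 ([…] final as stated) preincubated 30 min with compound (10-point, 25 μM to 1.3 nM), then Ub-Rh110 at 25 nM (<<Km) added in pH 8.0 Tris buffer with BME, BGG and Triton X-100. Reaction stopped after 45 min at room temperature with 10 mM citric acid; fluorescence read at 485/535 nm.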

| SMILES | IC50 |
| --- | --- |
| Cc1ccc2c(N)c(C(=O)N[C@@H]3CCc4nc(N5C[C@@H](CF)[C@@H](N)C5)ncc4C3)sc2n1 [Example 445, 3-amino-N-[(6R)-2-[(3R,4R)-3-amino-4-(fluoromethyl)pyrrolidin-1-yl]-5,6,7,8-tetrahydroquinazolin-6-yl]-6-methylthieno[2,3-b]pyridine-2-carboxamide] | > 2000 nM |
| CN[C@H]1CCN(c2ccc3c(c2)CC[C@H](NC(=O)c2sc4nc(C)cnc4c2N)C3)C1 (single isomer, unassigned) [Example 11-25] | 200 to 2000 nM |
| Cc1ccc2c(N)c(C(=O)N[C@H]3COc4cc(N5CCNCC5)ccc4[C@@H]3C)sc2n1 (single isomer, unassigned) [Example 11-16] | > 2000 nM |
| CO[C@H]1CN(c2ccc3c(c2)OC[C@H](NC(=O)c2sc4nc(C)sc4c2N)C3)CC1N (stereo partly drawn) [Example 118, 6-amino-N-[(3R)-7-[(3,4S)-3-amino-4-methoxypyrrolidin-1-yl]-3,4-dihydro-2H-1-benzopyran-3-yl]-2-methylthieno[2,3-d][1,3]thiazole-5-carboxamide] | 200 to 2000 nM |
| Cc1ccc2c(N)c(C(=O)N[C@H]3COc4cc(N5C[C@H](N)[C@@]6(CCOC6)C5)ccc4C3)sc2n1 (single isomer, unassigned) [Example 439] | 200 to 2000 nM |
| Cc1nc2sc(C(=O)N[C@H]3CCc4c(C#N)c(N5CC6CCC(C5)N6)cc(F)c4C3)c(N)c2s1 (single isomer, unassigned) [Example 14-21] | 50 to 200 nM |
| Cc1cnc2c(N)c(C(=O)N[C@H]3CCc4cc(N5C[C@@H]6C[C@H]5CN6)ccc4C3)sc2n1 (single isomer, unassigned) [Example 11-29] | 200 to 2000 nM |
| Cc1ccc2c(N)c(C(=O)N[C@@H]3CCc4c(C#N)c(N5CC6CCC(C5)N6)cc(F)c4C3)sc2n1 (single isomer, unassigned) [Example 14-18] | > 2000 nM |
| Cc1ccc2c(N)c(C(=O)N[C@@H]3CCc4nc(N5C[C@H](CF)[C@H](N)C5)ncc4C3)sc2n1 [Example 446, 3-amino-N-[(6R)-2-[(3S,4S)-3-amino-4-(fluoromethyl)pyrrolidin-1-yl]-5,6,7,8-tetrahydroquinazolin-6-yl]-6-methylthieno[2,3-b]pyridine-2-carboxamide] | > 2000 nM |
| CO[C@H]1CN(c2cc(F)c3c(c2C#N)CC[C@@H](NC(=O)c2sc4nc(C)ccc4c2N)C3)C[C@@H]1N (single isomer, unassigned) [Example 14-24] | > 2000 nM |
| Cc1cnc2c(N)c(C(=O)N[C@@H]3CCc4cc(N5C[C@H]6C[C@@H]5CN6)ccc4C3)sc2n1 (single isomer, unassigned) [Example 11-32] | 200 to 2000 nM |
| Cc1nc2sc(C(=O)N[C@H]3CCc4cc(N5CCNCC5)ccc4C3)c(N)c2s1 (single isomer, unassigned) [Example 11-33] | 200 to 2000 nM |
| Cc1cnc2c(N)c(C(=O)N[C@@H]3CCc4cc(N5CCNCC5)c(F)cc4C3)sc2n1 (single isomer, unassigned) [Example 21-11] | > 2000 nM |
| Cc1cnc2c(N)c(C(=O)N[C@@H]3CCc4c(ccc(N5CCNCC5)c4F)C3)sc2n1 (single isomer, unassigned) [Example 21-9] | 200 to 2000 nM |
| COC[C@@]1(C)CN(c2ccc3c(n2)CC[C@H](NC(=O)c2sc4nc(C)ccc4c2N)C3)C[C@H]1N [Example 343, 3-amino-N-[(6S)-2-[(3S,4S)-4-amino-3-(methoxymethyl)-3-methylpyrrolidin-1-yl]-5,6,7,8-tetrahydroquinolin-6-yl]-6-methylthieno[2,3-b]pyridine-2-carboxamide] | 200 to 2000 nM |
| Cc1ccc2c(N)c(C(=O)N[C@@H]3CCc4cc(N5CC6CNCC(C5)O6)cc(F)c4C3)sc2n1 (single isomer, unassigned) [Example 11-40] | 50 to 200 nM |
| Cc1ccc2c(N)c(C(=O)N[C@H]3COc4cc(N5CCNCC5)ccc4[C@H]3C)sc2n1 (single isomer, unassigned) [Example 11-15] | > 2000 nM |
| Cc1ccc2c(N)c(C(=O)N[C@H]3COc4cc(N5C[C@H](CF)[C@H](N)C5)ccc4C3)sc2n1 (single isomer, unassigned) [Example 424] | 200 to 2000 nM |
| Cc1ccc2c(N)c(C(=O)N[C@H]3CCc4cc(N5CCNCC5)ccc4C3)sc2n1 (single isomer, unassigned) [Example 11-21] | > 2000 nM |
| [2H]C1([2H])c2c(F)cc(N3CCNCC3)cc2OC[C@H]1NC(=O)c1sc2nc(C)ccc2c1N (single isomer, unassigned) [Example 33-2] | > 2000 nM |
| Cc1cnc2c(N)c(C(=O)N[C@H]3CCc4c(C#N)c(N5CCNCC5)cc(F)c4C3)sc2n1 (single isomer, unassigned) [Example 14-12] | > 2000 nM |
| Cc1cnc2c(N)c(C(=O)N[C@H]3CCc4cc(N5CCNCC5)c(F)cc4C3)sc2n1 (single isomer, unassigned) [Example 21-12] | 200 to 2000 nM |
| [2H]C1([2H])c2c(F)cc(N3CCNCC3)cc2OC[C@@H]1NC(=O)c1sc2nc(C)ccc2c1N (single isomer, unassigned) [Example 33-1] | 200 to 2000 nM |
| Cc1cnc2c(N)c(C(=O)N[C@H]3CCc4c(C#N)c(N5CC6CCC(C5)N6)cc(F)c4C3)sc2n1 (single isomer, unassigned) [Example 14-19] | 50 to 200 nM |
| Cc1ccc2c(N)c(C(=O)N[C@@H]3CCc4c(C#N)c(N5CC6CNCC(C5)O6)cc(F)c4C3)sc2n1 (single isomer, unassigned) [Example 14-16] | 200 to 2000 nM |
| Cc1cnc2c(N)c(C(=O)N[C@H]3CCc4cc(N5CCNCC5)cc(F)c4C3)sc2n1 (single isomer, unassigned) [Example 11-38] | 200 to 2000 nM |

same assay, conditions: biochemical IC50 range, Ubiquitin-Rhodamine 110 assay, Example A-3; read-out: USP25 A-3

| SMILES | IC50 |
| --- | --- |
| COC1CN(c2ccc3c(c2)CC[C@H](NC(=O)c2sc4nc(C)cnc4c2N)C3)CC1N (stereo in doubt) [Example 130, 7-amino-N-[(2S)-6-[(3S,4S)-3-amino-4-methoxypyrrolidin-1-yl]-1,2,3,4-tetrahydronaphthalen-2-yl]-3-methylthieno[2,3-b]pyrazine-6-carboxamide] | 200 to 2000 nM |
| O=C(N[C@H]1COc2cc(N3CCNCC3)ccc2C1)c1ccc(NCc2cccc3cn[nH]c23)nc1 [Example 698, 6-{[(1H-indazol-7-yl)methyl]amino}-N-[(3R)-7-(piperazin-1-yl)-3,4-dihydro-2H-1-benzopyran-3-yl]pyridine-3-carboxamide] | 200 to 2000 nM |
| Cc1ccc2c(N)c(C(=O)N[C@H]3COc4cc(N5C[C@H](N)[C@@](C)(CF)C5)ccc4C3)sc2n1 [Example 659, 3-amino-N-[(3R)-7-[(3S,4R)-4-amino-3-(fluoromethyl)-3-methylpyrrolidin-1-yl]-3,4-dihydro-2H-1-benzopyran-3-yl]-6-methylthieno[2,3-b]pyridine-2-carboxamide] | 50 to 200 nM |
| CO[C@H]1CN(c2ccc3c(c2)CC[C@H](NC(=O)c2sc4nc(C)ccc4c2N)C3)C[C@H]1N [Example 144, 3-amino-N-[(2S)-6-[(3R,4S)-3-amino-4-methoxypyrrolidin-1-yl]-1,2,3,4-tetrahydronaphthalen-2-yl]-6-methylthieno[2,3-b]pyridine-2-carboxamide] | 200 to 2000 nM |
| Cc1ccc2c(N)c(C(=O)N[C@H]3COc4cc(N5C[C@@H](N)[C@@](C)(CF)C5)ccc4C3)sc2n1 [Example 660, 3-amino-N-[(3R)-7-[(3S,4S)-4-amino-3-(fluoromethyl)-3-methylpyrrolidin-1-yl]-3,4-dihydro-2H-1-benzopyran-3-yl]-6-methylthieno[2,3-b]pyridine-2-carboxamide] | 1 to 50 nM |
| CN[C@H]1CN(c2ccc3c(c2)OC[C@H](NC(=O)c2sc4nc(C)ccc4c2N)C3)C[C@@H]1CF [Example 662, 3-amino-N-[(3R)-7-[(3S,4R)-3-(fluoromethyl)-4-(methylamino)pyrrolidin-1-yl]-3,4-dihydro-2H-1-benzopyran-3-yl]-6-methylthieno[2,3-b]pyridine-2-carboxamide] | 1 to 50 nM |
| Cc1ccc2c(N)c(C(=O)N[C@H]3COc4cc(N5C[C@@H](N)[C@](C)(CF)C5)ccc4C3)sc2n1 [Example 661, 3-amino-N-[(3R)-7-[(3R,4S)-4-amino-3-(fluoromethyl)-3-methylpyrrolidin-1-yl]-3,4-dihydro-2H-1-benzopyran-3-yl]-6-methylthieno[2,3-b]pyridine-2-carboxamide] | 50 to 200 nM |
